Test results: patent publication US20170334852A1, “CATIONIC LIPID” (Eisai R&D Management Co., Ltd., priority 2014, published 2017)

Key:
[1] = Particle diameter after mixing, PBS dialysis and storage at 4° C., analysis (9); assay type: physicochemical; details: storage period, compared to the composition of Comparative Example 3
Experimental: In the compositions of Examples 53 and 54 and Comparative Example 3, the particle diameter (Z-average and polydispersity index) was measured immediately after the lipid complex was generated by mixing the siRNA diluent and the lipid solution in the preparation of each composition, after the lipid complex was dialyzed into PBS, and after storage in the sealed vial at 4° C. for 2 months and 6 months, using a particle diameter-measuring device (trade name “Zetasizer Nano ZS”, manufactured by Malvern Instruments Ltd.).

[2] = Particle diameter on storage in sealed vial at 4° C., analysis (7); assay type: physicochemical; details: lipid complex stored for a certain period
Experimental: In the compositions of Examples 46 to 52, each composition was stored in a sealed vial at 4° C. and the particle diameter (Z-average and polydispersity index) before the strorage, after 3 months from the storage and after 6 months from the storage was measured in the same manner as that for the composition of Example 29.

| Structure (SMILES) | Increase in particle diameter of the lipid complex during storage (in words) [1] | Increase in particle diameter of the lipid complex during storage (in words) [2] |
| --- | --- | --- |
| CCCCCCCCCCC(CCCCCCCCC(=O)OCC(CCCC)CCCCCC)OC(=O)C1CCN(C)CC1 (centres unmarked) [YS-120, 1-((2-butyloctyl)oxy)-1-oxoicosane-10-yl-1-methylpiperidine-4-carboxylate] | an increase in particle diameter of the lipid complex was suppressed | stability is high |
| CCCCC/C=C\C(CCCC)COC(=O)CCCCCCCCC(CCCCCCCCCC)OC(=O)C1CCN(C)CC1 (centres unmarked) [YS-122, (Z)-1-((2-butylnon-3-en-1-yl)oxy)-1-oxoicosane-10-yl-1-methylpiperidine-4-carboxylate] | – | stability is high |
| CCCCCCCCCCC(CCCCCCCCC(=O)OC/C=C\CC(CCC)CCCC)OC(=O)C1CCN(C)CC1 (centres unmarked) [YS-123, (Z)-1-oxo-1-((5-propylnon-2-en-1-yl)oxy)icosane-10-yl-1-methylpiperidine-4-carboxylate] | – | stability is high |
| CCCCCCCCCCC(CCCCCCCCC(=O)OCCC(CCCCC)CCCCC)OC(=O)C1CCN(C)CC1 (centres unmarked) [YS-124, 1-oxo-1-((3-pentyloctyl)oxy)icosane-10-yl-1-methylpiperidine-4-carboxylate] | an increase in particle diameter of the lipid complex was suppressed | stability is high |
| CCCCCCCCCCC(CCCCCCCCC(=O)OCC(CCC)CC(CCC)CCC)OC(=O)C1CCN(C)CC1 (centres unmarked) [YS-125, 1-((2,4-dipropylheptyl)oxy)-1-oxoicosane-10-yl-1-methylpiperidine-4-carboxylate] | – | stability is high |
| CCCCCCCCCCC(CCCCCCCCC(=O)OCCC(CCC)C(CCC)CCC)OC(=O)C1CCN(C)CC1 (centres unmarked) [YS-126, 1-((3,4-dipropylheptyl)oxy)-1-oxoicosane-10-yl-1-methylpiperidine-4-carboxylate] | – | stability is high |
